Source: the SangsterLogP compilation

assay: method code SF, from Craig, N. (1990). Drug Compendium. In Hansch, C (Ed.), Comprehensive Medicinal Chemistry. Pergamon Press.; details: not given

SMILES | logP
COc1cc(S(C)=O)ccc1-c1nc2ncccc2[nH]1 (stereo not drawn) | 1.17
N#Cc1ccccc1OCC(O)CNCCNC(=O)Cc1ccc(O)cc1 (stereo not drawn) | 0.92
CSc1ccc(OCc2ncc([N+](=O)[O-])n2C)cc1 | 2.5
OC[C@@H](O)[C@H]1O[C@@H]2O[C@H](C(Cl)(Cl)Cl)O[C@@H]2[C@H]1O | 1.02
OCCN1CCN([C@@H]2C[C@@H](c3ccc(F)cc3)c3ccc(C(F)(F)F)cc32)CC1 | 4.39
CN(C)CCN1C(=O)c2ccccc2Nc2cc(Cl)ccc21 | 3.73
CCC(=O)O[C@]1(c2ccccc2)CCN(C)C[C@H]1CC | 3.61
C[C@]12CCC(=O)C=C1CC[C@@H]1[C@@H]2CC[C@@]2(C)[C@H]1CC[C@]2(O)C(=O)CO | 2.52
Cc1ncc([N+](=O)[O-])n1CCc1ccncc1 | 0.06
COc1cc2c(cc1OC)C(CCCCC1NCCc3cc(OC)c(OC)cc31)NCC2 (stereo not drawn) | 3.35
O=[N+]([O-])c1cnc(-c2ccc(F)cc2)n1CCO | 1.33
CC(C)/N=C(N)/N=C(\N)Nc1ccc(Cl)cc1 | 2.53
NC(=O)c1csc([C@@H]2O[C@H](CO)[C@@H](O)[C@H]2O)n1 | -1.73
N=C(N)N1CCc2ccccc2C1 | 0.75
CCc1ncc([N+](=O)[O-])n1CCNC(=S)OC | 1.46
CCN(CC)CCNc1ccc(CO)c2sc3ccccc3c(=O)c12 | 2.7
Nc1ccc(S(=O)(=O)c2ccc(N)cc2)cc1 | 1.03
CCC1(CC)C(=O)NCC(C)C1=O (stereo not drawn) | 0.78

SMILES | logP
Cc1ncc([N+](=O)[O-])n1CCOC(N)=O | -0.29
CC(C)S(=O)(=O)n1c(N)nc2ccc(/C(=N\O)c3ccccc3)cc21 | 3.1
CCN[C@@H](C)Cc1cccc(C(F)(F)F)c1 | 3.36
CN1CC[C@@]23CCCC[C@@H]2[C@@H]1Cc1ccc(O)cc13 | 3.11
CCC(O)C(CC(C)N(C)C)(c1ccccc1)c1ccccc1 (stereo not drawn) | 4.27
Nc1ncn([C@@H]2O[C@H](CO)[C@@H](O)[C@@H]2O)c(=O)n1 | -2.17
Cc1ccccc1-n1c(C)nc2ccccc2c1=O | 2.5
CN(C)CCC1CN(C)C(=S)c2cnccc2O1 (stereo not drawn) | 1.08
NC(=O)CCC/N=C(\c1ccc(Cl)cc1)c1cc(F)ccc1O | 2.97
NCc1ccccc1Sc1ccccc1CO | 2.39
CC(=O)O[C@H]1C[C@H](O[C@H]2[C@@H](O)C[C@H](O[C@H]3[C@@H](O)C[C@H](O[C@H]4CC[C@@]5(C)[C@H](CC[C@@H]6[C@@H]5CC[C@]5(C)[C@@H](C7=CC(=O)OC7)CC[C@]65O)C4)O[C@@H]3C)O[C@@H]2C)O[C@H](C)[C@H]1O | 1.97
CCC(OC(C)=O)C(CC(C)N(C)C)(c1ccccc1)c1ccccc1 (stereo not drawn) | 4.27
C=CCC1(C(C)CC)C(=O)NC(=O)NC1=O (stereo not drawn) | 1.47
COc1cc(NS(=O)(=O)c2ccc(N)cc2)ncn1 | 0.7
CCNC1C2CCC(C2)C1c1ccccc1 (stereo not drawn) | 3.2
CC(=O)[C@H]1CC[C@H]2[C@@H]3C[C@H](C)C4=CC(=O)CC[C@]4(C)[C@H]3C(=O)C[C@]12C | 2.75
C[C@@H]1C[C@H]2[C@@H]3C[C@H](F)C4=CC(=O)C=C[C@]4(C)[C@@]3(F)[C@@H](O)C[C@]2(C)[C@H]1C(=O)COC(=O)C(C)(C)C | 3.86

same assay, conditions: pH 4.9

SMILES | logD
CCOC(=O)[C@H](CCc1ccccc1)N[C@H]1CCCN2CCC[C@@H](C(=O)O)N2C1=O | 0.55
CCOC(=O)[C@H](CCc1ccccc1)N[C@@H](C)C(=O)N1CCC[C@H]1C(=O)O | -0.07

same assay, conditions: pH 7.4

SMILES | logD
CCOC(=O)C=C1SC(N2CCCCC2)C(=O)N1C (stereo not drawn) | 2.3
